Where two headings read alike, the source gives them in different places.
Legend:
Assay type in all cases: biochemical
[1] = molecular target: T1, quinol cytochrome c reductase (CIII) (Homo sapiens, UniProt P00156); assay: Antimycin-sensitive quinol cytochrome c reductase (QCCR) activity, freeze-thawed HEK cells
T1 construct: the pellets were permeabilized by two freeze-thaw cycles before enzyme assays; endogenous in cells; host or cells: HEK293, freeze-thawed cell pellets
Description: (§1) The cells were grown in T75 flasks using 10 ml Dulbecco’s modified Eagle's minimal essential medium (DMEM) either containing 1 or 4.5 g/l glucose, 4 mM glutamine (glutamax; Gibco Thermo Fisher Scientific, MA), 2 mM pyruvate and 200 μM uridine (permissive medium, thereafter referred as GlucoMax) or lacking glucose, pyruvate and uridine but containing 4 mM glutamine (nonpermissive medium, thereafter referred as MitoMax; S1 Table). All media were supplemented with 10% fetal calf serum and 100 U/mL each penicillin and streptomycin. HEK293 human embryonic kidney cells were cultured in DMEM containing 4.5 g/L glucose, 4 mM glutamine, 10% fetal calf serum, 200 μM uridine, 2 mM pyruvate, and 100 U/mL each penicillin and streptomycin [9]. Cell pellets (1,500 g for 5 min) were kept frozen (-80°C), and for biochemical studies, the pellets were permeabilized by two freeze-thaw cycles before enzyme assays.
(§2) RC enzyme activities were spectrophotometrically measured using a pseudo-double-wavelength spectrophotometer (Cary 60, Agilent). Malonate-sensitive succinate quinone dichlorophenolindophenol (DCPIP) reductase (SQDR), as an indicator of the activity of the isolated SDH enzyme (isolated CII), and glycerol-3-phosphate quinone DCPIP reductase (GQDR), as a measure of the activity of the isolated glycerol-3-phosphate dehydrogenase (G3PDH), were assayed as previously described. To study the effect of SDHIs on the RC, we had to take into consideration the fact that these inhibitors act through binding to quinone-binding sites in the RC. Accordingly, we observed that the extent of the inhibitory effects of these substances varies with the addition of exogenous quinones (Fig 1). […] With this aim, we measured the malonate-sensitive succinate cytochrome c reductase (SDH+CIII), glycerol-3-phosphate cytochrome c reductase (G3PDH+CIII) and antimycin-sensitive quinol cytochrome c reductase (CIII) as previously described.
(§3) The effects of eight different SDHIs (up to 500 μM; S2 Fig) were determined on four different biological materials. Because IC50 are known to be affected by the actual absolute activity of the tested enzyme, these IC50 were quantified using similar levels of SDH enzyme activity during the assay. IC50 values were determined using the AAT Bioquest IC50 calculator tool (https://www.aatbio.com/tools/ic50-calculator).

[2] = molecular target: T2, quinol cytochrome c reductase (CIII) (Apis mellifera, UniProt P34845); assay: QCCR activity, honeybee crude mitochondria
T2 sequence (P34845 1-383): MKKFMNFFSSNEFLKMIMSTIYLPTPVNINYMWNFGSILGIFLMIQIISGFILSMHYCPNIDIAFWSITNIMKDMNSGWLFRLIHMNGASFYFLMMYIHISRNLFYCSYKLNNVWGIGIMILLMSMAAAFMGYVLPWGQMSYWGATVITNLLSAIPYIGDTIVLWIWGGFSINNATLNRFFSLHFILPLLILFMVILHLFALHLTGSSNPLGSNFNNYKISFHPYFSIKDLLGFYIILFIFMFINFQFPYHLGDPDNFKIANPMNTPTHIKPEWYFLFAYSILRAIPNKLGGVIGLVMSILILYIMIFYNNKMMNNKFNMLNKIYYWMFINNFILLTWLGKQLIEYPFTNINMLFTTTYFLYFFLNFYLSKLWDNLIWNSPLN
Description: A. mellifera individuals (n = 5) were a kind gift from Jacques Kemp (beekeeper; Saint-Rémy-lès-Chevreuse, Yvelines, France). Whole bodies of individuals frozen in dry ice, except heads, were homogenized using a 1 ml glass-glass Potter-Elvehjem homogenizer in an ice-cold medium consisting of 20 mM Tris (pH 7.2), 0.25 M sucrose, 40 mM KCl, 2 mM EGTA, and 1 mg/ml BSA. The homogenate was centrifuged at 1,500 g for 5 min. The mitochondria contained in the supernatant were spun down at 10,000 g for 10 min. The pellet of crude mitochondria was distributed as 20-μl aliquots and kept frozen at -80°C.
as §2, with “described.” for “described. To study the effect of SDHIs on the RC, we had to take into consideration the fact that these inhibitors act through binding to quinone-binding sites in the RC. Accordingly, we observed that the extent of the inhibitory effects of these substances varies with the addition of exogenous quinones (Fig 1).”
as §3

[3] = molecular target: T3, quinol cytochrome c reductase (CIII) (Lumbricus terrestris, UniProt Q34945); assay: QCCR activity, earthworm homogenate
T3 sequence (Q34945 1-379): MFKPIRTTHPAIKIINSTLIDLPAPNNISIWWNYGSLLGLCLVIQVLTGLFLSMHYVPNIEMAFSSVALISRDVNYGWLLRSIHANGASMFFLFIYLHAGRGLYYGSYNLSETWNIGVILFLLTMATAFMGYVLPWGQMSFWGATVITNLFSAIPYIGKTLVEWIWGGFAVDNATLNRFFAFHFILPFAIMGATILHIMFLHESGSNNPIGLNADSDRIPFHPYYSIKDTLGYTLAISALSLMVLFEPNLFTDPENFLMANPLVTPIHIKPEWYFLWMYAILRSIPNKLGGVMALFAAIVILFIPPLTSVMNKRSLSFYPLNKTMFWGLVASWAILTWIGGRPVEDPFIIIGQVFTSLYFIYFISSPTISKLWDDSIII
Description: (§4) L. terrestris individuals (n = 5) were collected manually in a household compost in Epernon (France 28230) and identified by the person (Paule Bénit) in charge of this compost. Before use, the worms were washed 5 times with 1× phosphate-buffered saline. A fresh homogenate was prepared from the segments located between the prostomium and clitellum of the 5 individuals. Tissues were placed in 500 μl of an ice-cold medium consisting of 20 mM Tris (pH 7.2), 0.25 M sucrose, 40 mM KCl, 2 mM EGTA, and 1 mg/ml BSA and homogenized using a 1-ml glass-glass Potter-Elvehjem homogenizer. Low-speed centrifugation at 1,500 g for 5 min allowed heavy debris to be discarded. The supernatant was distributed as 50-μl aliquots and kept frozen at -80°C.
as §2, with “described.” for “described. To study the effect of SDHIs on the RC, we had to take into consideration the fact that these inhibitors act through binding to quinone-binding sites in the RC. Accordingly, we observed that the extent of the inhibitory effects of these substances varies with the addition of exogenous quinones (Fig 1).”
as §3

[4] = molecular target: succinate cytochrome c reductase (SDH+CIII); assay: SCCR activity, earthworm homogenate; settings: Lumbricus terrestris homogenate
Description: as §4
as §2, with “described.” for “described. To study the effect of SDHIs on the RC, we had to take into consideration the fact that these inhibitors act through binding to quinone-binding sites in the RC. Accordingly, we observed that the extent of the inhibitory effects of these substances varies with the addition of exogenous quinones (Fig 1).”
as §3

[5] = molecular target: succinate cytochrome c reductase (SDH+CIII) (Homo sapiens, UniProt O14521+P21912+Q99643); assay: Malonate-sensitive succinate cytochrome c reductase (SCCR) activity, freeze-thawed HEK cells; parameters: the pellets were permeabilized by two freeze-thaw cycles before enzyme assays; endogenous in cells; host or cells: HEK293, freeze-thawed cell pellets; settings: no exogenous quinone
succinate cytochrome c reductase (SDH+CIII) (Homo sapiens, UniProt O14521+P21912+Q99643), sequence (P21912 29-280): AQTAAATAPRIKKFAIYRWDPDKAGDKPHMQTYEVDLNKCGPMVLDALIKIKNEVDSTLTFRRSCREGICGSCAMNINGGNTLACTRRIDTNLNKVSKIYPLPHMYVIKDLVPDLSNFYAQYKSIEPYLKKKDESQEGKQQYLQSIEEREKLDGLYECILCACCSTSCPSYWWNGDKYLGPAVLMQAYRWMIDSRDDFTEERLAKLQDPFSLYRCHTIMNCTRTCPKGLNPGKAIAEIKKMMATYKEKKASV
succinate cytochrome c reductase (SDH+CIII) (Homo sapiens, UniProt O14521+P21912+Q99643), sequence (Q99643 30-169): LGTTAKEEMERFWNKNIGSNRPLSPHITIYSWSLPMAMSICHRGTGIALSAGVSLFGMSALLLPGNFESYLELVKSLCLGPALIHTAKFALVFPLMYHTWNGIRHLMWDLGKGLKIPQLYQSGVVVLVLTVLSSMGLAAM
succinate cytochrome c reductase (SDH+CIII) (Homo sapiens, UniProt O14521+P21912+Q99643), sequence (O14521 57-159): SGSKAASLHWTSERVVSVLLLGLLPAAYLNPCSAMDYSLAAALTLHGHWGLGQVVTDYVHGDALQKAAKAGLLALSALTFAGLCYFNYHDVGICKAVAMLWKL
succinate cytochrome c reductase (SDH+CIII) (Homo sapiens, UniProt O14521+P21912+Q99643), sequence (P31040 43-664 partner): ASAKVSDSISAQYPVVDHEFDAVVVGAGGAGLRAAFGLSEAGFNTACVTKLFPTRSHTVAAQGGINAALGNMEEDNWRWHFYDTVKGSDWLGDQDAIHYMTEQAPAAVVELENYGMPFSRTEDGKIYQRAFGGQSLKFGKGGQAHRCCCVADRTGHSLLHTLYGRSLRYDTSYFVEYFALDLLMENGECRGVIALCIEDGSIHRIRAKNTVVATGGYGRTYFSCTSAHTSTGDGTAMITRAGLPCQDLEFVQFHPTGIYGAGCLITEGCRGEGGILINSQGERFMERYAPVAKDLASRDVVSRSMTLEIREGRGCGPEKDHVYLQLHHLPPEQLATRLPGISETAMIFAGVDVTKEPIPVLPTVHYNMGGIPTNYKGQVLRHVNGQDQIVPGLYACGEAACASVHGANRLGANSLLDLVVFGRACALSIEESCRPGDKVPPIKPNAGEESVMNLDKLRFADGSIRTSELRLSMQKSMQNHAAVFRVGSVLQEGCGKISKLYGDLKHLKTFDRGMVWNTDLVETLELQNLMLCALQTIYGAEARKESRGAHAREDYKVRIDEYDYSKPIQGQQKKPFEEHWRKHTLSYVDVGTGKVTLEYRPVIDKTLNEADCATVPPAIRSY
Description: as §1, §2, §3

[6] = Homo sapiens, freeze-thawed HEK cells, CIII values only indicative (reduced quinone added), read-out: IC50 QCCR
[7] = CIII values only indicative, read-out: IC50 QCCR
[8] = read-out: IC50 QCCR, CIII values only indicative

Row | SMILES | IC50 [1, 6] [µM] | IC50 [2, 7] [µM] | IC50 [3, 7] [µM] | IC50 [4] [µM] | IC50 ([5]; n ≥ 3, listed as bixafen, read-out: IC50 SCCR) [µM] | IC50 ([5]; n ≥ 3, read-out: IC50 SCCR) [µM] | IC50 ([5]; n ≥ 3, listed as penflufen, read-out: IC50 SCCR) [µM] | IC50 [1] [µM] | IC50 [2, 8] [µM] | IC50 [3, 8] [µM] | IC50 ([5]; IC50 SCCR, n ≥ 3) [µM] | IC50 ([5]; n ≥ 3, listed as isopyrazam, read-out: IC50 SCCR) [µM]
1 | Cn1cc(C(=O)Nc2ccc(F)cc2-c2ccc(Cl)c(Cl)c2)c(C(F)F)n1 [Bixafen, bixafen] | 15.5 | 5.7 | ≥ 500 | 6 | ≤ 1 | 0.34 |  |  |  |  |  | 
2 | Cn1cc(C(=O)Nc2ccccc2-c2cc(F)c(F)c(F)c2)c(C(F)F)n1 [Fluxapyroxad, fluxapyroxad] | > 500 | 300 | > 500 | 0.71 |  | 2.1 |  |  |  |  |  | 
3 | Cc1nn(C)c(F)c1C(=O)Nc1ccccc1C(C)CC(C)C (centres unmarked) [Penflufen, penflufen] | > 500 | > 500 | > 500 | 1.13 |  | 1.3 | ≤ 1 |  |  |  |  | 
4 | O=C(Nc1ccccc1-c1ccc(Cl)cc1)c1cccnc1Cl [Boscalid, boscalid] |  |  |  | 0.5 |  |  |  | > 500 | > 500 | > 500 | 4.8 | 
5 | CC(C)C1C2CCC1c1c(NC(=O)c3cn(C)nc3C(F)F)cccc12 (centres unmarked) [Isopyrazam, isopyrazam] | 125 | 87 | 76 | 0.46 |  | 0.63 |  |  |  |  |  | ≤ 1
6 | CC(C)Oc1cccc(NC(=O)c2ccccc2C(F)(F)F)c1 [Flutolanil, flutolanil] | > 500 |  |  | 0.36 |  | 18.7 |  |  | > 500 | > 500 |  | 
7 | CC(C)CC(C)c1sccc1NC(=O)c1cn(C)nc1C(F)(F)F (centres unmarked) [Penthiopyrad, penthiopyrad] |  |  |  | 0.7 |  |  |  | 349 | 268 | 297 | 3.7 | 

From PMC6837341, “Evolutionarily conserved susceptibility of the mitochondrial respiratory chain to SDHI pesticides and its consequence on the impact of SDHIs on human cultured cells” (PLoS ONE, 2019)
